Source: ChEMBL document CHEMBL1201862, “PubChem BioAssay data set” (2004)
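Step 1: Grow cells in 96-well plates. Step 2: Expose to compound for 48 hours at 5 concentrations. Step 3: Interpolate endpoints linearly; if unreached, use highest concentration. At the GI50, growth is halved.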 The source made the active and inactive calls. No stated cut-off is given here; in the data, active = GI50 up to about 1.1 µM and inactive = higher.

What was measured:
Test in all cases: inhibition of tumour cell growth, NCI panel, 48 h
[1] = test system: 786-0
[2] = test system: COLO 205
[3] = test system: EKVX
[4] = test system: HCT-116
[5] = test system: HCT-15
[6] = test system: HL-60
[7] = test system: HOP-92
[8] = test system: K562
[9] = test system: MCF7
[10] = test system: NCI-H23
[11] = test system: NCI-H522
[12] = test system: NCI/ADR-RES
[13] = test system: OVCAR-3
[14] = test system: RPMI-8226
[15] = test system: RXF 393
[16] = test system: SF-539
[17] = test system: SK-MEL-2
[18] = test system: SK-OV-3
[19] = test system: CAKI-1
[20] = test system: NCI-H460

SMILES | GI50 [1] | GI50 [2] | GI50 [3] | GI50 [4] | GI50 [5] [µM] | GI50 [6] | GI50 [7] | GI50 [8] | GI50 [9] | GI50 [10] | GI50 [11] | GI50 [12] | GI50 [13] | GI50 [14] | GI50 [15] | GI50 [16] | GI50 [17] | GI50 [18] | GI50 [19] | GI50 [20]
COC(=O)c1c2c(cc3c1CC1(C3)Cc3cc4c(c(C(=O)OC)c3C1)CCCC4)CCCC2 | > 100 µM (inactive) | > 100 µM (inactive) | > 100 µM (inactive) | > 100 µM (inactive) | > 100 | 24.2 µM (inactive) | > 100 µM (inactive) | 43 µM (inactive) | > 100 µM (inactive) | > 100 µM (inactive) | > 100 µM (inactive) | > 100 µM (inactive) | > 100 µM (inactive) | 49.8 µM (inactive) | > 100 µM (inactive) | > 100 µM (inactive) | 1.55 µM (inactive) | > 100 µM (inactive) | – | –
CC(=O)OC(COc1ccc2c(c1)[n+]([O-])nc(N)[n+]2[O-])CN1CCCCC1 (configuration not stated) | 9.98 µM (inactive) | 4.85 µM (inactive) | – | 10.3 µM (inactive) | 7.89 | 5.12 µM (inactive) | 17.4 µM (inactive) | 7.69 µM (inactive) | 4.71 µM (inactive) | 12.4 µM (inactive) | 11.1 µM (inactive) | 68.5 µM (inactive) | 13.6 µM (inactive) | 5.58 µM (inactive) | 16.5 µM (inactive) | 15.2 µM (inactive) | 10.2 µM (inactive) | – | 17.4 µM (inactive) | 3.97 µM (inactive)
Clc1ccc(/C(=C/c2ccccc2)Cn2ccnc2)cc1 | 30.5 µM (inactive) | 18.6 µM (inactive) | 31.9 µM (inactive) | 9.08 µM (inactive) | 20.2 | 14.3 µM (inactive) | 12.7 µM (inactive) | 5.42 µM (inactive) | 20.4 µM (inactive) | 38.2 µM (inactive) | 11.9 µM (inactive) | 20.4 µM (inactive) | – | 18.2 µM (inactive) | 14.6 µM (inactive) | 24 µM (inactive) | 14.6 µM (inactive) | 19.1 µM (inactive) | 19.3 µM (inactive) | 26.9 µM (inactive)
Cc1ccc2c(/C=C/c3ccc(N(C)C)cc3)ccc(C(C)C)cc1-2 | > 100 µM (inactive) | > 100 µM (inactive) | 94.2 µM (inactive) | > 100 µM (inactive) | – | 12.9 µM (inactive) | 76.4 µM (inactive) | > 100 µM (inactive) | > 100 µM (inactive) | > 100 µM (inactive) | 99.3 µM (inactive) | > 100 µM (inactive) | > 100 µM (inactive) | > 100 µM (inactive) | > 100 µM (inactive) | – | > 100 µM (inactive) | > 100 µM (inactive) | > 100 µM (inactive) | –
COC(=O)c1ccccc1CC1Cc2c(C)ccc(C)c2C1=O (configuration not stated) | 36.3 µM (inactive) | 19.1 µM (inactive) | 13.5 µM (inactive) | 16.5 µM (inactive) | 24.6 | 23.3 µM (inactive) | 17.2 µM (inactive) | 33.5 µM (inactive) | 11.2 µM (inactive) | 15.4 µM (inactive) | 21.6 µM (inactive) | 18.3 µM (inactive) | 34.4 µM (inactive) | – | 21.4 µM (inactive) | 51.2 µM (inactive) | 17.9 µM (inactive) | 38.6 µM (inactive) | 34.5 µM (inactive) | 30.2 µM (inactive)
CCOC(=O)c1c(NC(=O)Nc2ccccc2)c(C(N)=O)c2n1CCCCC2 | > 100 µM (inactive) | > 100 µM (inactive) | > 100 µM (inactive) | > 100 µM (inactive) | > 100 | > 100 µM (inactive) | > 100 µM (inactive) | > 100 µM (inactive) | > 100 µM (inactive) | > 100 µM (inactive) | – | > 100 µM (inactive) | – | > 100 µM (inactive) | > 100 µM (inactive) | > 100 µM (inactive) | > 100 µM (inactive) | > 100 µM (inactive) | > 100 µM (inactive) | > 100 µM (inactive)
c1ccc(C(Oc2noc3ccccc23)c2ccccc2)cc1 | 48.8 µM (inactive) | 16.9 µM (inactive) | 40.9 µM (inactive) | 25.9 µM (inactive) | 31.3 | 23.4 µM (inactive) | 35.6 µM (inactive) | 23.8 µM (inactive) | 37.3 µM (inactive) | 41.7 µM (inactive) | 26.1 µM (inactive) | 30.8 µM (inactive) | 35.2 µM (inactive) | – | 14.9 µM (inactive) | – | – | 57 µM (inactive) | 62.2 µM (inactive) | 29.2 µM (inactive)
O=C(CCl)N1CCN(c2ccccn2)CC1 | 18.4 µM (inactive) | 24.2 µM (inactive) | 26.9 µM (inactive) | 32.3 µM (inactive) | > 10 | 24.3 µM (inactive) | 21.3 µM (inactive) | 31.7 µM (inactive) | 23.9 µM (inactive) | 19.8 µM (inactive) | – | 27.2 µM (inactive) | – | 31.8 µM (inactive) | 23.4 µM (inactive) | – | – | 46.7 µM (inactive) | 19.3 µM (inactive) | 19.3 µM (inactive)
